Results: patent US9561228B2 (Celgene Avilomics Research, Inc., priority 2013, dated 2017)

Key:
[1] = biological target: T1, MEK1 activated ERK1 (Homo sapiens, UniProt P27361); assay: Omnia continuous-read kinase assay for potency against MEK1 activated ERK1; assay type: biochemical; settings: MEK1 activated ERK1, ATP at KM; read-out: ERK1 Omnia WT ATP KM IC50
T1 construct: purchased Millipore (Billerica, Mass.) 14-439-K
Outline: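 Apparent IC50 came from initial reaction slopes (RFU vs time) plotted against log inhibitor with a variable-slope fit. Reactions were started with ERK1 (4 nM final) added to 50 μM ATP, roughly at its appKM, and 10 μM Sox-conjugated ST17 peptide in 20 mM Tris pH 7.5, 5 mM MgCl2. Fluorescence was monitored every 71 seconds.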

[2] = biological target: T2, Erk1 (Homo sapiens, UniProt P27361); assay: Protein Mass Modification Assay (intact protein MALDI, 60 min, 10-fold excess of compound); assay type: binding
T2 construct: purchased Millipore 14-439
Procedure: Protein Mass Modification Assay
Intact protein: Erk1 from Millipore (Cat. No. 14-439) was incubated for 60 min. at room temperature with a 10-fold excess of test compound to protein. 4 μL aliquots of the resulting mixture were diluted with 15 μL of 0.2% TFA prior to micro C4 ZipTipping directly onto the MALDI target using sinapinic acid as the desorption matrix (10 mg/ml in 0.1% TFA:Acetonitrile 50:50, v/v). The centroid mass of the target protein in the control sample was compared with the centroid mass of the target protein incubated with compound. A shift in the centroid mass of the treated protein compared to the untreated protein was divided by the molecular weight of the compound. This number corresponds to the percentage of modified protein after one hour incubation. Results from this assay are reported in Table A under the column “ERK1 Mass Mod (%).”

[3] = tested on: ERK1/2 phosphorylation of p90RSK in HT29 cells; assay: pRSK MSD Assay in HT29 cells; assay type: cell-based; settings: Homo sapiens, HT-29, read-out: ERK1/ERK2 PRSK MSD HT29 EC50
Outline: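 Serum-starved HT29 cells (0.1% FBS overnight) treated with test compound for 120 min at 37° C, then lysed with protease and phosphatase inhibitors. Phospho-p90RSK quantified by MSD sandwich immunoassay: RSK capture antibody, phospho-RSK detection antibody plus Sulfo-tagged antibody, electrochemiluminescence read.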

[4] = tested on: A375 cells (malignant melanoma); assay: Inhibition of cancer cell proliferation, A375 (CellTiterGlo, 72 hours); assay type: cell-based; settings: Homo sapiens, A-375
Procedure: Measurement of Inhibition of Cancer Cell Proliferation (A375/Malignant Melanoma)
The following protocol used an A375 cell line, which cell line is a model for malignant melanoma. A375 cells were split and 3000 cells in […] of growth medium were added per well of a flat-bottom 96-well plate. A two-fold test compound solution in serum-free DMEM was made, starting at 5,000 nM. Then, 3-fold serial dilutions were made across the plate from well 1 to well 11. Well 12, the last well in a row on the plate, was left as untreated control. 100 μl compound solutions were then transferred to the wells, so the total volume of media was 200 μl per well. Plates were returned to a 37° C. incubator, and the cells were cultured for 72 hours. To measure cell proliferation after 72 hours, media was discarded from the plates, 50 μl/well of fresh medium was added, and 50 μl CellTiterGlo solution was added (Promega Cat#G7573). The plate was covered with a dark lid and incubated for 10 min. A white sealing tape was applied to the bottom of the plate, and the plate was read in a luminescence plate reader. […] 50 μl CellTiterGlo was added per well, and the plate was read in a luminescence plate reader after 10 min. The reading was plotted vs. cell number to generate a standard curve and the equation of the curve fit. The compound-treated sample luminescence readings were converted to cell numbers using the curve-fit equation. The percent of inhibition, using untreated control as 100% growth, was then calculated. GI50 was then calculated by GraphPad Prism.

[5] = tested on: HT-29 cells (colorectal adenocarcinoma); assay: Inhibition of cancer cell proliferation, HT-29 (CellTiterGlo, 72 hours); assay type: cell-based; settings: Homo sapiens
Outline: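 HT-29 cells seeded at 3000/well, then treated with 3-fold serial dilutions from a 5,000 nM two-fold solution in serum-free RPMI1640, untreated wells as control, for 72 h at 37° C. CellTiterGlo luminescence converted to cell number via a standard curve; GI50 from percent inhibition versus untreated growth.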

T1 sequence (P27361 whole entry): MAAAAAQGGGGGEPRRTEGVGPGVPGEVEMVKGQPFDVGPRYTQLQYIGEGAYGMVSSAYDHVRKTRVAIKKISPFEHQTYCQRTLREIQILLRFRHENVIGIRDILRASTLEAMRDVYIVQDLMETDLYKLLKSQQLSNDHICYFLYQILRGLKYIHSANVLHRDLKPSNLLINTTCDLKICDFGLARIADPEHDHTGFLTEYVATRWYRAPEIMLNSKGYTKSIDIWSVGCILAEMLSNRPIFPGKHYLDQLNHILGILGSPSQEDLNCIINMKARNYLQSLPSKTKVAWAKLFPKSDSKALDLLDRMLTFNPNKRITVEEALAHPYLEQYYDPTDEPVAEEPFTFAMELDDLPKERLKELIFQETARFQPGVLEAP
T2 sequence (P27361 whole entry): as above

Row | IC50 [1] | EC50 [3] | GI50 [4] | GI50 [5] | SMILES | ERK1 Mass Mod (%) [2]
1 | 101 to 500 nM | 101 to 500 nM |  |  | C#CCOc1cc(C)c(Nc2ncc(Cl)c(Nc3ccccc3NC(=O)C=C)n2)cc1C(N)=O [Compound I-228, 5-((4-((2-acrylamidophenyl)amino)-5-chloropyrimidin-2-yl)amino)-4-methyl-2-(prop-2-yn-1-yloxy)benzamide] | E (a mass modification of ≧70%)
2 | 101 to 500 nM | 101 to 500 nM | < 100 nM | 101 to 500 nM | C=CC(=O)Nc1cc(C)ccc1Nc1nc(Nc2ccncc2C)ncc1Cl [Compound I-236, N-(2-((5-chloro-2-((3-methylpyridin-4-yl)amino)pyrimidin-4-yl)amino)-5-methylphenyl)acrylamide] | 
3 | 101 to 500 nM | < 100 nM | < 100 nM | < 100 nM | C=CC(=O)Nc1cc(C)ccc1Nc1nc(Nc2ccnc(OC)c2)ncc1Cl [Compound I-235, N-(2-((5-chloro-2-((2-methoxypyridin-4-yl)amino)pyrimidin-4-yl)amino)-5-methylphenyl)acrylamide] | 
4 | 101 to 500 nM | 101 to 500 nM | < 100 nM | < 100 nM | C=CC(=O)Nc1ccccc1Nc1nc(Nc2cc(C(=O)NC)c(F)cc2C)ncc1Cl [Compound I-231, 5-((4-((2-acrylamidophenyl)amino)-5-chloropyrimidin-2-yl)amino)-2-fluoro-N,4-dimethylbenzamide] | 
5 | 101 to 500 nM | > 1000 nM | 101 to 500 nM | 101 to 500 nM | CC(=O)N1CCC[C@H](Nc2ncc(C(F)(F)F)c(N[C@H]3[C@@H](C(N)=O)[C@@H]4C=C[C@H]3C4)n2)C1 [Compound I-308, (1S,2S,3R,4R)-3-((2-(((S)-1-acetylpiperidin-3-yl)amino)-5-(trifluoromethyl)pyrimidin-4-yl)amino)bicyclo[2.2.1]hept-5-ene-2-carboxamide] | 
6 | 101 to 500 nM | 101 to 500 nM | 101 to 500 nM | 101 to 500 nM | C=CC(=O)Nc1cc(C)ccc1Nc1nc(Nc2cc(C(=O)NC)c(F)cc2C)ncc1Cl [Compound I-233, 5-((4-((2-acrylamido-4-methylphenyl)amino)-5-chloropyrimidin-2-yl)amino)-2-fluoro-N,4-dimethylbenzamide] | 
7 | 101 to 500 nM |  |  |  | C=CC(=O)Nc1cc(OC)ccc1Nc1nc(Nc2ccc(N3CCC[C@H]3C(N)=O)cc2C#N)ncc1Cl [Compound I-178, (S)-1-(4-((4-((2-acrylamido-4-methoxyphenyl)amino)-5-chloropyrimidin-2-yl)amino)-3-cyanophenyl)pyrrolidine-2-carboxamide] | E (a mass modification of ≧70%)
8 | 101 to 500 nM | 101 to 500 nM | 101 to 500 nM | < 100 nM | C=CC(=O)Nc1ccccc1Nc1nc(Nc2cc(C(=O)NCCO)c(F)cc2C)ncc1Cl [Compound I-232, 5-((4-((2-acrylamidophenyl)amino)-5-chloropyrimidin-2-yl)amino)-2-fluoro-N-(2-hydroxyethyl)-4-methylbenzamide] | 

The remaining lines, values behind:

Row | SMILES | IC50 [1] | EC50 [3] | GI50 [4] | GI50 [5] | ERK1 Mass Mod (%) [2]
9 | C=CC(=O)Nc1cc(OC)ccc1Oc1nc(Nc2ccc(N3CCC[C@@H]3CO)cc2OC)ncc1C(N)=O [Compound I-264, (R)-4-(2-acrylamido-4-methoxyphenoxy)-2-((4-(2-(hydroxymethyl)pyrrolidin-1-yl)-2-methoxyphenyl)amino)pyrimidine-5-carboxamide] | > 1000 nM |  |  |  | F (a mass modification of 31-69%)
10 | C=CC(=O)N[C@H]1CCCC[C@@H]1Nc1nc(N[C@H]2CCCN(C(=O)CO)C2)ncc1C(F)(F)F (racemic) [Compound I-27, Rac-N-(2-((2-(((R)-1-(2-hydroxyacetyl)piperidin-3-yl)amino)-5-(trifluoromethyl)pyrimidin-4-yl)amino)-trans-cyclohexyl)acrylamide] |  | 501 to 999 nM |  |  | F (key: E: a mass modification of ≧70%; F: a mass modification of 31-69%; G: a mass modification ≦30%)
11 | C=CC(=O)Nc1ccccc1Nc1nc(Nc2cc(C(=O)NOCCO)ccc2C#N)ncc1Cl [Compound I-202, 3-((4-((2-acrylamidophenyl)amino)-5-chloropyrimidin-2-yl)amino)-4-cyano-N-(2-hydroxyethoxyl)benzamide] | 101 to 500 nM |  |  |  | F (a mass modification of 31-69%)
12 | C=CC(=O)Nc1ccccc1Nc1nc(N[C@@H]2CCC[C@H](C(=O)O)C2)ncc1Cl (racemic) [Compound I-133, Rac-3-((4-((2-acrylamidophenyl)amino)-5-chloropyrimidin-2-yl)amino)-cis-cyclohexanecarboxylic acid] | 101 to 500 nM |  |  |  | E (a mass modification of ≧70%)
13 | C=CC(=O)Nc1cc(C)ccc1Nc1nc(Nc2cc(C(N)=O)ccc2C)ncc1C(F)(F)F [Compound I-79, 3-((4-((2-Acrylamido-4-methylphenyl)amino)-5-(trifluoromethyl)pyrimidin-2-yl)amino)-4-methylbenzamide] | 101 to 500 nM | < 100 nM | < 100 nM | < 100 nM | 
14 | C=CC(=O)Nc1cc(F)ccc1Nc1nc(N[C@H]2CC[C@@H](F)CC2)ncc1C(F)(F)F [Compound I-8, N-(5-fluoro-2-((2-((cis-4-fluorocyclohexyl)amino)-5-(trifluoromethyl)pyrimidin-4-yl)amino)phenyl)acrylamide] | 101 to 500 nM |  |  |  | E (a mass modification of ≧70%)
15 | C=CC(=O)Nc1ccccc1Nc1nc(Nc2ccc(N(CCNC(=O)OC(C)(C)C)C(C)=O)cc2OC)ncc1Cl [Compound I-174, tert-butyl(2-(N-(4-((4-((2-acrylamidophenyl)amino)-5-chloropyrimidin-2-yl)amino)-3-methoxyphenyl)acetamido)ethyl)carbamate] | 501 to 999 nM |  |  |  | E (a mass modification of ≧70%)
16 | C=CC(=O)Nc1ccccc1Nc1nc(Nc2cc(C(=O)NC)c(F)cc2C)ncc1C(F)(F)F [Compound I-80, 5-((4-((2-Acrylamidophenyl)amino)-5-(trifluoromethyl)pyrimidin-2-yl)amino)-2-fluoro-N,4-dimethylbenzamide] | 101 to 500 nM | 101 to 500 nM | 101 to 500 nM | < 100 nM | 
17 | C=CC(=O)Nc1ccccc1Nc1nc(N[C@H]2CC[C@H](F)CC2)ncc1C(F)(F)F [Compound I-111, N-(2-((2-(trans-(4-fluorocyclohexyl)amino)-5-(trifluoromethyl)pyrimidin-4-yl)amino)phenyl)acrylamide] |  |  |  |  | E (a mass modification of ≧70%)
18 | C=CC(=O)Nc1ccccc1Nc1nc(Nc2ccc(N3CCN(C(C)=O)CC3)cc2OC)ncc1Cl [Compound I-149, N-(2-((2-((4-(4-acetylpiperazin-1-yl)-2-methoxyphenyl)amino)-5-chloropyrimidin-4-yl)amino)phenyl)acrylamide] | 101 to 500 nM |  |  |  | E (key: E: a mass modification of ≧70%; F: a mass modification of 31-69%; G: a mass modification ≦30%)
19 | C=CC(=O)Nc1ccccc1Nc1nc(Nc2ccc(N3CCN(C(C)=O)CC3)cc2OC)ncc1C(F)(F)F [Compound I-66, N-(2-((2-((4-(4-Acetylpiperazin-1-yl)-2-methoxyphenyl)amino)-5-(trifluoromethyl)pyrimidin-4-yl)amino)phenyl)acrylamide] | 501 to 999 nM |  |  |  | E (key: E: a mass modification of ≧70%; F: a mass modification of 31-69%; G: a mass modification ≦30%)
